Experimental data reported in PubChem BioAssay (NCI).
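Results reflect a 48-hour exposure of cells in 96-well plates to compound at five concentrations. The concentration for full growth arrest is given as TGI.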 The source made the active and inactive calls. Rule as the data show it: active = GI50 below about 0.43 µM; inactive = the rest.

Tests used:
Test in all cases: inhibition of tumour cell growth, NCI panel, 48 h
DU-145 prostate = system: DU-145 prostate
LOX IMVI melanoma = system: LOX IMVI melanoma
MOLT-4 leukemia = system: MOLT-4 leukemia
MCF7 breast = system: MCF7 breast
NCI-H226 lung = system: NCI-H226 lung
NCI/ADR-RES ovarian = system: NCI/ADR-RES ovarian
SF-539 CNS = system: SF-539 CNS
HCC-2998 colon = system: HCC-2998 colon
SNB-19 CNS = system: SNB-19 CNS
SF-268 CNS = system: SF-268 CNS
SK-MEL-5 melanoma = system: SK-MEL-5 melanoma
SK-MEL-28 melanoma = system: SK-MEL-28 melanoma
OVCAR-4 ovarian = system: OVCAR-4 ovarian
UACC-62 melanoma = system: UACC-62 melanoma
A498 renal = system: A498 renal
EKVX NSCLC = system: EKVX NSCLC
OVCAR-8 ovarian = system: OVCAR-8 ovarian
NCI-H460 lung = system: NCI-H460 lung
T-47D breast = system: T-47D breast
HT29 colon = system: HT29 colon
HCT-15 colon = system: HCT-15 colon
K-562 leukemia = system: K-562 leukemia
MALME-3M melanoma = system: MALME-3M melanoma
A549 NSCLC = system: A549 NSCLC
CAKI-1 renal = system: CAKI-1 renal
UO-31 renal = system: UO-31 renal
HCT-116 colon = system: HCT-116 colon
SK-OV-3 ovarian = system: SK-OV-3 ovarian
SR leukemia = system: SR leukemia
SK-MEL-2 melanoma = system: SK-MEL-2 melanoma
SW-620 colon = system: SW-620 colon
HL-60(TB) leukemia = system: HL-60(TB) leukemia
HOP-62 NSCLC = system: HOP-62 NSCLC
UACC-257 melanoma = system: UACC-257 melanoma
HS 578T breast = system: HS 578T breast
MDA-MB-435 = system: MDA-MB-435
OVCAR-5 ovarian = system: OVCAR-5 ovarian
IGROV1 ovarian = system: IGROV1 ovarian
SNB-75 CNS = system: SNB-75 CNS
MDA-MB-231 breast = system: MDA-MB-231 breast
PC-3 prostate = system: PC-3 prostate
HOP-92 NSCLC = system: HOP-92 NSCLC
MDA-N = system: MDA-N
BT-549 breast = system: BT-549 breast
SN12C renal = system: SN12C renal
TK-10 renal = system: TK-10 renal
U251 CNS = system: U251 CNS
SF-295 CNS = system: SF-295 CNS
NCI-H23 lung = system: NCI-H23 lung
COLO 205 colon = system: COLO 205 colon
RXF 393 renal = system: RXF 393 renal
OVCAR-3 ovarian = system: OVCAR-3 ovarian
CCRF-CEM leukemia = system: CCRF-CEM leukemia
M14 melanoma = system: M14 melanoma
KM12 colon = system: KM12 colon
786-0 renal = system: 786-0 renal
RPMI-8226 leukemia = system: RPMI-8226 leukemia
NCI-H522 lung = system: NCI-H522 lung
ACHN renal = system: ACHN renal

With `O=c1cc(-c2ccc(O)c(O)c2-c2c(O)cc(O)c3c(=O)cc(-c4ccc(O)c(O)c4-c4c(O)cc(O)c5c(=O)cc(-c6ccc(O)c(O)c6)oc45)oc23)oc2cc(O)cc(O)c12` the outcome (DU-145 prostate) was “inactive”, the outcome (LOX IMVI melanoma) was “inactive” and the outcome (MOLT-4 leukemia) was “inactive”. For the same molecule, the outcome (MCF7 breast) was “inactive”, the outcome (NCI-H226 lung) was “inactive” and the outcome (NCI/ADR-RES ovarian) was “inactive”. For the same molecule, the outcome (SF-539 CNS) was “inactive”, the outcome (HCC-2998 colon) was “inactive” and the outcome (SNB-19 CNS) was “inactive”. For the same molecule, the outcome (SF-268 CNS) was “inactive”, the outcome (SK-MEL-5 melanoma) was “inactive” and the outcome (SK-MEL-28 melanoma) was “inactive”. The outcome (OVCAR-4 ovarian) was “inactive”, the outcome (UACC-62 melanoma) was “inactive” and the outcome (A498 renal) was “inactive”. For the same molecule, the outcome (EKVX NSCLC) was “inactive”, the outcome (OVCAR-8 ovarian) was “inactive” and the outcome (NCI-H460 lung) was “inactive”. The outcome (T-47D breast) was “inactive”, the outcome (HT29 colon) was “inactive” and the outcome (HCT-15 colon) was “inactive”. For the same molecule, the outcome (K-562 leukemia) was “inactive”, the outcome (MALME-3M melanoma) was “inactive” and the outcome (A549 NSCLC) was “inactive”. The outcome (CAKI-1 renal) was “inactive”, the outcome (UO-31 renal) was “inactive” and the outcome (HCT-116 colon) was “inactive”. The outcome (SK-OV-3 ovarian) was “inactive”, the outcome (SR leukemia) was “inactive” and the outcome (SK-MEL-2 melanoma) was “inactive”. The outcome (SW-620 colon) was “inactive”, the outcome (HL-60(TB) leukemia) was “inactive” and the outcome (HOP-62 NSCLC) was “inactive”. The outcome (UACC-257 melanoma) was “inactive”, the outcome (HS 578T breast) was “inactive” and the outcome (MDA-MB-435) was “inactive”. For the same molecule, the outcome (OVCAR-5 ovarian) was “inactive”, the outcome (IGROV1 ovarian) was “inactive” and the outcome (SNB-75 CNS) was “inactive”. The outcome (MDA-MB-231 breast) was “inactive”, the outcome (PC-3 prostate) was “inactive” and the outcome (HOP-92 NSCLC) was “inactive”. For the same molecule, the outcome (MDA-N) was “inactive”, the outcome (BT-549 breast) was “inactive” and the outcome (SN12C renal) was “inactive”. For the same molecule, the outcome (TK-10 renal) was “inactive”, the outcome (U251 CNS) was “inactive” and the outcome (SF-295 CNS) was “inactive”. For the same molecule, the outcome (NCI-H23 lung) was “inactive”, the outcome (COLO 205 colon) was “inactive” and the outcome (RXF 393 renal) was “inactive”. The outcome (OVCAR-3 ovarian) was “inactive”, the outcome (CCRF-CEM leukemia) was “inactive” and the outcome (M14 melanoma) was “inactive”.

For `Nc1ccn(C2OC(COP(=O)(O)OCC3OC(n4cc(F)c(=O)[nH]c4=O)CC3O)C(O)C2O)c(=O)n1` (stereo unspecified), the TGI (DU-145 prostate) was > 100 µM, the TGI (LOX IMVI melanoma) was > 100 µM and the TGI (MOLT-4 leukemia) was 7.95 µM. The TGI (MCF7 breast) was > 100 µM, the TGI (NCI-H226 lung) was > 100 µM and the TGI (NCI/ADR-RES ovarian) was > 100 µM. For the same molecule, the TGI (SF-539 CNS) was > 100 µM, the TGI (HCC-2998 colon) was > 100 µM and the TGI (SNB-19 CNS) was > 100 µM. For the same molecule, the TGI (SF-268 CNS) was > 100 µM, the TGI (SK-MEL-5 melanoma) was > 100 µM and the TGI (SK-MEL-28 melanoma) was > 100 µM. The TGI (OVCAR-4 ovarian) was > 100 µM, the TGI (UACC-62 melanoma) was > 100 µM and the TGI (A498 renal) was 99.3 µM. For the same molecule, the TGI (EKVX NSCLC) was > 100 µM, the TGI (OVCAR-8 ovarian) was > 100 µM and the TGI (T-47D breast) was > 100 µM. For the same molecule, the TGI (KM12 colon) was > 100 µM, the TGI (HT29 colon) was > 100 µM and the TGI (HCT-15 colon) was > 100 µM. For the same molecule, the TGI (K-562 leukemia) was > 100 µM, the TGI (MALME-3M melanoma) was > 100 µM and the TGI (A549 NSCLC) was > 100 µM. The TGI (CAKI-1 renal) was > 50.1 µM, the TGI (UO-31 renal) was > 100 µM and the TGI (HCT-116 colon) was > 100 µM. The TGI (SK-OV-3 ovarian) was > 100 µM, the TGI (SR leukemia) was > 88.6 µM and the TGI (SK-MEL-2 melanoma) was > 100 µM. The TGI (SW-620 colon) was > 100 µM, the TGI (UACC-257 melanoma) was > 100 µM and the TGI (HS 578T breast) was > 100 µM. For the same molecule, the TGI (786-0 renal) was > 100 µM, the TGI (MDA-MB-435) was > 100 µM and the TGI (OVCAR-5 ovarian) was > 100 µM. For the same molecule, the TGI (RPMI-8226 leukemia) was > 100 µM, the TGI (IGROV1 ovarian) was > 100 µM and the TGI (SNB-75 CNS) was > 100 µM. The TGI (MDA-MB-231 breast) was > 100 µM, the TGI (NCI-H522 lung) was > 100 µM and the TGI (PC-3 prostate) was > 100 µM. The TGI (HOP-92 NSCLC) was > 100 µM, the TGI (MDA-N) was > 100 µM and the TGI (BT-549 breast) was > 100 µM. The TGI (SN12C renal) was > 100 µM, the TGI (TK-10 renal) was > 100 µM and the TGI (U251 CNS) was > 100 µM. The TGI (ACHN renal) was > 34.2 µM, the TGI (SF-295 CNS) was > 100 µM and the TGI (NCI-H23 lung) was > 42.1 µM. The TGI (COLO 205 colon) was > 100 µM, the TGI (RXF 393 renal) was > 100 µM and the TGI (OVCAR-3 ovarian) was > 100 µM. The TGI (M14 melanoma) was 12.9 µM.

`CCCCCCCC/C=C\CCCCCCC/C=C1/C[C@](/C=C/C(=O)OC)(CO)OC1=O` was tested, and the TGI (DU-145 prostate) was 23.4 µM, the TGI (LOX IMVI melanoma) was 12.8 µM and the TGI (MOLT-4 leukemia) was > 21.5 µM. For the same molecule, the TGI (MCF7 breast) was 20.8 µM, the TGI (NCI-H226 lung) was 15.8 µM and the TGI (NCI/ADR-RES ovarian) was 24 µM. The TGI (SF-539 CNS) was 2.84 µM, the TGI (HCC-2998 colon) was 10.1 µM and the TGI (SNB-19 CNS) was 20.3 µM. For the same molecule, the TGI (SF-268 CNS) was 19.7 µM, the TGI (SK-MEL-5 melanoma) was 18 µM and the TGI (SK-MEL-28 melanoma) was 10.2 µM. The TGI (OVCAR-4 ovarian) was 16.9 µM, the TGI (UACC-62 melanoma) was 22.4 µM and the TGI (A498 renal) was 21.2 µM. For the same molecule, the TGI (EKVX NSCLC) was 23 µM, the TGI (OVCAR-8 ovarian) was 19.2 µM and the TGI (NCI-H460 lung) was 19.9 µM. The TGI (T-47D breast) was 19.8 µM, the TGI (KM12 colon) was 23.9 µM and the TGI (HT29 colon) was 20.9 µM. The TGI (HCT-15 colon) was 20.5 µM, the TGI (K-562 leukemia) was > 32.5 µM and the TGI (MALME-3M melanoma) was 8.74 µM. The TGI (A549 NSCLC) was 17.3 µM, the TGI (CAKI-1 renal) was 12.5 µM and the TGI (UO-31 renal) was 15 µM. The TGI (HCT-116 colon) was 15.5 µM, the TGI (SK-OV-3 ovarian) was 24.3 µM and the TGI (SR leukemia) was > 31.7 µM. For the same molecule, the TGI (SK-MEL-2 melanoma) was 27.6 µM, the TGI (SW-620 colon) was 11.4 µM and the TGI (HL-60(TB) leukemia) was 10.3 µM. For the same molecule, the TGI (HOP-62 NSCLC) was 19 µM, the TGI (UACC-257 melanoma) was 29.6 µM and the TGI (HS 578T breast) was 9.29 µM. The TGI (786-0 renal) was 10.3 µM, the TGI (MDA-MB-435) was 7.41 µM and the TGI (OVCAR-5 ovarian) was 20.3 µM. It also gave a TGI (IGROV1 ovarian) of 23.7 µM, a TGI (SNB-75 CNS) of 20.4 µM and a TGI (MDA-MB-231 breast) of 17.7 µM. For the same molecule, the TGI (NCI-H522 lung) was 17.6 µM, the TGI (PC-3 prostate) was 14.5 µM and the TGI (HOP-92 NSCLC) was 20.3 µM. For the same molecule, the TGI (MDA-N) was 3.19 µM, the TGI (BT-549 breast) was 17.8 µM and the TGI (SN12C renal) was 14.8 µM. The TGI (TK-10 renal) was 15.3 µM, the TGI (U251 CNS) was 21.2 µM and the TGI (ACHN renal) was 16.7 µM. It also gave a TGI (SF-295 CNS) of 17.1 µM, a TGI (NCI-H23 lung) of 24.9 µM and a TGI (COLO 205 colon) of 5.04 µM. The TGI (RXF 393 renal) was 28.5 µM, the TGI (OVCAR-3 ovarian) was 24 µM and the TGI (M14 melanoma) was 11.6 µM.
